The results in this text go back to patent US20200078463A1, “COMPOSITION HAVING IMPROVED WATER SOLUBILITY AND BIOAVAILABILITY” (SAMYANG BIOPHARMACEUTICALS CORPORATION, priority 2017, published 2020).

A short description of the data set: Additive screening: dissolved sorafenib in pH 1.2 buffer by HPLC. It counts as physicochemical. Conditions: 100 mg sorafenib tosylate (crystalline form III) + 10 mg additive in 1 ml pH 1.2 buffer, shaken at 1,100 rpm for 24 hours, filtered 0.45 μm. The protocol: In order to test the content of drug included in the formulation, it was analyzed by HPLC using the following test method.
(1) Buffer preparation: After dissolving 0.77 g ammonium acetate in 1000 ml of water, the pH of the solution was adjusted to 6.8±0.05 using ammonia solutions.
(2) The solution of (1) and acetonitrile were mixed at 40:60 (v/v), and the solution filtered with a filter paper having a pore size of 0.45 μm and degassed was used as a mobile phase.
The buffer solution (1) and acetonitrile were mixed at 30:70 (v/v) to obtain a dilution solution.
1 ml of the standard solution (300 μg/ml) was precisely taken, and 2 ml of the diluted solution was added to prepare a standard solution (100 μg/ml). 1 ml of the standard solution (300 μg/ml) was precisely taken, and 4 ml of the diluted solution was added to prepare a standard solution (60 μg/ml). 1 ml of the standard solution (100 μg/ml) was precisely taken, and 4 ml of the diluted solution was added to prepare a standard solution (20 μg/ml). A calibration curve was drawn using the four standard solutions and used to calculate the content of the test solution.
Detector: ultraviolet absorbance photometer (wavelength 265 nm)
Column: Eclipse XDB-C18, 4.6 mm×150 mm, 5 μm or equivalent column
Column temperature: 27° C.
It was shaken at 1,100 rpm for 24 hours. […]

Structures are written as SMILES. Counter-ions that a name gives are not always drawn.

As for `CNC(=O)c1cc(Oc2ccc(NC(=O)Nc3ccc(Cl)c(C(F)(F)F)c3)cc2)ccn1` [No polymer, sorafenib tosylate], the “Concentration of dissolved sorafenib” value came to 100 ng/mL.
